According to ChEMBL document CHEMBL1146354, “Synthesis, cytotoxicity, and DNA topoisomerase II inhibitory activity of benzofuroquinolinediones” (Bioorg Med Chem, 2007):

Assays:
[1] = tested on: SK-OV-3; experiment: Cytotoxicity against human SK-OV-3 cells by SRB assay; format: functional, cell-based
[2] = target: T1, DNA topoisomerase 1 (Homo sapiens) (UniProt P11387); experiment: Inhibition of human topoisomerase 1-mediated DNA relaxation activity at 5 uM after 10 mins relative to control
T1 sequence (whole entry): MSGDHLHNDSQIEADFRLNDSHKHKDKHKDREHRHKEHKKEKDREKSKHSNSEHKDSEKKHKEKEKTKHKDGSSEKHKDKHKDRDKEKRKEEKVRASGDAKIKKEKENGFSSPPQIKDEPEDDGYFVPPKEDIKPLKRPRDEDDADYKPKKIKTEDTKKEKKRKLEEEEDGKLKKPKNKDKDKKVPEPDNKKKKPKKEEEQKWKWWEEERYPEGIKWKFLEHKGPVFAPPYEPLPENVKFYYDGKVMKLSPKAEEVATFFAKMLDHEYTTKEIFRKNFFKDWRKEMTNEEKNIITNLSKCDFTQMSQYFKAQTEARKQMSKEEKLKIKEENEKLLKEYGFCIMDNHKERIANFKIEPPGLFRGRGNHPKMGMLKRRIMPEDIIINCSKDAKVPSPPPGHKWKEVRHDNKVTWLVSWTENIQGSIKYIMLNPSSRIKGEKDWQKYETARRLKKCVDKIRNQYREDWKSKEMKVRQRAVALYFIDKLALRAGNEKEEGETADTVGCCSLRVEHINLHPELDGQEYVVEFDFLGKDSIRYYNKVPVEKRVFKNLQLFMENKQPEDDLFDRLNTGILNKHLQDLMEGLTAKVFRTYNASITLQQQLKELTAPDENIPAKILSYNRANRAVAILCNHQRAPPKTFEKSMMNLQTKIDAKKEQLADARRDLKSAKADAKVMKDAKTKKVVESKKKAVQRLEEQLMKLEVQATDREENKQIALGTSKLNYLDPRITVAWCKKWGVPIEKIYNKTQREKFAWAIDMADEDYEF

[3] = tested on: HCT-116; experiment: Cytotoxicity against human HCT116 cells by SRB assay; format: functional, cell-based
[4] = tested on: HT-1080; experiment: Cytotoxicity against human HT1080 cells by SRB assay; format: functional, cell-based
[5] = tested on: SK-MEL-2; experiment: Cytotoxicity against human SK-MEL-2 cells by SRB assay; format: functional, cell-based
[6] = tested on: SNU-638; experiment: Cytotoxicity against human SNU638 cells by SRB assay; format: functional, cell-based
[7] = tested on: XF498; experiment: Cytotoxicity against human XF498 cells by SRB assay; format: functional, cell-based
[8] = tested on: HL-60; experiment: Cytotoxicity against human HL60 cells by SRB assay; format: functional, cell-based
[9] = tested on: A549; experiment: Cytotoxicity against human A549 cells by SRB assay; format: functional, cell-based
[10] = organism: Homo sapiens; experiment: Inhibition of human topoisomerase 2-mediated KDNA decatenation activity at 5 uM after 10 mins relative to control
[11] = Inhibition of human topoisomerase 2 […]
[12] = target: T2, DNA topoisomerase 1 (Homo sapiens, UniProt P11387); experiment: Inhibition of human topoisomerase 1 […]
T2 sequence (P11387 whole entry): T1 sequence (whole entry)

[13] = organism: Homo sapiens; experiment: Inhibition of human topoisomerase 2-mediated KDNA decatenation activity at 200 uM after 10 mins relative to control

| SMILES | IC50 [1] | inhibition [2] | IC50 [3] | IC50 [4] | IC50 [5] | IC50 [6] | IC50 [7] | IC50 [8] | IC50 [9] | inhibition [10] | IC50 [11] | IC50 [12] | inhibition [13] |
| --- | --- | --- | --- | --- | --- | --- | --- | --- | --- | --- | --- | --- | --- |
| CCN(CC)CCOc1cc2oc3c(c2cc1Cl)C(=O)c1ccccc1C3=O | > 20000 nM | 19% | 1520 nM | 2730 nM | 5730 nM | 2770 nM | > 20000 nM | 2270 nM | 1590 nM | 50% |  |  |  |
| CC(C)N(CCOc1cc2oc3c(c2cc1Cl)C(=O)c1ccccc1C3=O)C(C)C | > 20000 nM | 14% | > 20000 nM | > 20000 nM | > 20000 nM | > 20000 nM | > 20000 nM | > 20000 nM | > 20000 nM | 59% |  |  |  |
| CC(CN(C)C)Oc1cc2oc3c(c2cc1Cl)C(=O)c1ccccc1C3=O (centres undefined) | 550 nM | 6% | 420 nM | 490 nM | 340 nM | 100 nM | 550 nM | 670 nM | 620 nM | 88% |  |  |  |
| CCN(CC)CCOc1ccc2c3c(oc2c1)C(=O)c1ncccc1C3=O | 270 nM | 0% | 60 nM | 70 nM | 160 nM | 140 nM | 140 nM | 250 nM | 50 nM | 100% | 680 nM | 64300 nM |  |
| CC(COc1ccc2c3c(oc2c1)C(=O)c1ccccc1C3=O)N(C)C (centres undefined) | 19000 nM | 14% | 2200 nM | 340 nM | 2150 nM | 840 nM | 4690 nM | 390 nM | 210 nM | 100% | 1190 nM | 42000 nM |  |
| CC(COc1ccc2c3c(oc2c1)C(=O)c1ncccc1C3=O)N(C)C (centres undefined) | 80 nM | 0% | 70 nM | 60 nM | 90 nM | 110 nM | 100 nM | 180 nM | 20 nM | 67% |  |  |  |
| COc1cc([C@@H]2c3cc4c(cc3[C@@H](O[C@@H]3O[C@@H]5CO[C@@H](C)O[C@H]5[C@H](O)[C@H]3O)[C@H]3COC(=O)[C@H]23)OCO4)cc(OC)c1O [ETOPOSIDE] |  |  | 1870 nM |  |  |  |  | 370 nM |  |  | 78400 nM |  | 89% |
| CC(CN(C)C)Oc1cc2oc3c(c2cc1Cl)C(=O)c1cccnc1C3=O (centres undefined) | 150 nM | 0% | 130 nM | 100 nM | 150 nM | 100 nM | 170 nM | 60 nM | 100 nM | 11% |  |  |  |
| CC(CN(C)C)Oc1ccc2c3c(oc2c1)C(=O)c1ccccc1C3=O (centres undefined) | 2260 nM | 12% | 270 nM | 270 nM | 1520 nM | 880 nM | 1750 nM | 250 nM | 370 nM | 84% |  | 59500 nM |  |
| COc1cccc2c1C(=O)c1c(O)c3c(c(O)c1C2=O)C[C@@](O)(C(=O)CO)C[C@@H]3O[C@H]1C[C@H](N)[C@H](O)[C@H](C)O1 [DOXORUBICIN] | 290 nM |  | 620 nM | 60 nM | 70 nM | 60 nM | 40 nM | 40 nM | 150 nM | 78% | 2670 nM |  |  |
| CC(C)N(CCOc1cc2oc3c(c2cc1Cl)C(=O)c1cccnc1C3=O)C(C)C | 750 nM | 0% | 410 nM | 220 nM | 730 nM | 530 nM | 910 nM | 700 nM | 180 nM | 35% |  |  |  |
| CCN(CC)CCOc1ccc2c3c(oc2c1)C(=O)c1ccccc1C3=O | > 20000 nM | 12% | 1680 nM | 2190 nM | > 20000 nM | 3110 nM | > 20000 nM | 650 nM | 1090 nM | 91% |  |  |  |
| CC(C)N(CCOc1ccc2c3c(oc2c1)C(=O)c1ncccc1C3=O)C(C)C | 1020 nM | 0% | 180 nM | 180 nM | 940 nM | 450 nM | 940 nM | 80 nM | 370 nM | 71% |  |  |  |
| CC(CN(C)C)Oc1ccc2c3c(oc2c1)C(=O)c1ncccc1C3=O (centres undefined) | 150 nM | 0% | 80 nM | 170 nM | 150 nM | 140 nM | 120 nM | 90 nM | 60 nM | 24% |  |  |  |
| CC(COc1cc2oc3c(c2cc1Cl)C(=O)c1cccnc1C3=O)N(C)C (centres undefined) | 150 nM | 0% | 140 nM | 110 nM | 140 nM | 180 nM | 140 nM | 220 nM | 90 nM | 59% |  |  |  |
| CCN(CC)CCOc1cc2oc3c(c2cc1Cl)C(=O)c1cccnc1C3=O | 250 nM | 0% | 130 nM | 150 nM | 240 nM | 140 nM | 400 nM | 310 nM | 90 nM | 47% |  |  |  |
| CC(C)N(CCOc1ccc2c3c(oc2c1)C(=O)c1ccccc1C3=O)C(C)C | 3550 nM | 10% | 1390 nM | 1020 nM | 1530 nM | 2570 nM | 3170 nM | 1110 nM | 2010 nM | 36% |  |  |  |
| CC(COc1cc2oc3c(c2cc1Cl)C(=O)c1ccccc1C3=O)N(C)C (centres undefined) | 650 nM | 0% | 340 nM | 650 nM | 500 nM | 1140 nM | 550 nM | 630 nM | 450 nM | 68% |  |  |  |
